From PubChem BioAssay AID1503 (Sanford-Burnham Center for Chemical Genomics, 2009)
Converted amounts (≈) assume the structure as drawn. The source made the active and inactive calls.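 How the source made its calls: active means compounds whose lowest dose cutting E. coli growth over twofold at 37 C is below a set limit; inactive means the rest.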

System: E. coli growth, OD530, overnight, 37 C
Experiment: E. coli growth inhibition, SAR follow-up, DnaK modulator project, MIC, 37 and 42 C (AID 1503)
[1] = measured here: E. coli MIC at 42 C

SMILES | MIC | MIC [1]
O=C(Nc1ccc2[nH]ccc2c1)c1cccs1 | 400 µM (≈ 96.9 µg/mL) | 400 µM (≈ 96.9 µg/mL)
O=C(NCc1ccccc1Br)c1cccs1 | > 4000 µM (inactive) | 
CC(Cc1ccc(F)cc1)NC(=O)c1cccs1 (configuration not stated) | > 10000 µM (inactive) | > 10000 µM
Cc1ccc(C(=O)NCc2ccc(F)cc2)o1 | > 4000 µM (inactive) | 
O=C(NCc1ccccc1F)c1cccs1 | > 4000 µM (inactive) | 

The next lines start with the values.

MIC | MIC [1] | SMILES
< 4000 µM (inactive) | > 4000 µM | Nc1ccc2c(ccn2C(=O)c2cccs2)c1
> 4000 µM (inactive) |  | Cc1ccc(C(=O)NCc2ccc(Cl)cc2)o1
250 µM (≈ 65.1 µg/mL) | 250 µM (≈ 65.1 µg/mL) | Cc1ccc(CNC(=O)c2ccc([N+](=O)[O-])o2)cc1
